According to ChEMBL document CHEMBL1141418 (J Med Chem, 2007):
Positions of bridges follow the written chain, without caps; N, C: chain ends. Non-standard residues stand in square brackets, D forms with d. Residues, ends and D or L forms follow the SMILES beside them. Cha = N[C@@H](CC1CCCCC1)C(=O)O; Orn = NCCC[C@H](N)C(=O)O; Dab = NCC[C@H](N)C(=O)O; Dap = NC[C@H](N)C(=O)O; Mpa = O=C(O)CCS

How the values were obtained:
[1] = target: T1, Oxytocin receptor (Homo sapiens) (UniProt P30559); assay: (§1) Activity at OT receptor assessed as oxytocic activity in absence of magnesium; format: functional; conditions: filed as agonist
T1 sequence (whole entry): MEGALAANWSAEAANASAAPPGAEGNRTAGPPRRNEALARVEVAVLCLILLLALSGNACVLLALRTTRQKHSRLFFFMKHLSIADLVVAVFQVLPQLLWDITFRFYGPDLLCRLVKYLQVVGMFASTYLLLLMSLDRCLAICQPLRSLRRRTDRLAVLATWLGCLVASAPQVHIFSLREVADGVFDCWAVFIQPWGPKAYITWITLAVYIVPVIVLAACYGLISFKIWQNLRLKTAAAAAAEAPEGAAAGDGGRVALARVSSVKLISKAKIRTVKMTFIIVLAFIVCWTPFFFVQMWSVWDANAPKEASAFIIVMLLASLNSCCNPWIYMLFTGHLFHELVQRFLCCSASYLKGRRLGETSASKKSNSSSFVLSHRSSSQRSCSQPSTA

Rattus norvegicus [2] = species: Rattus norvegicus; assay: Antidiuretic activity in rat; format: functional, Urine
Rattus norvegicus [3] = species: Rattus norvegicus; assay: Vasopressor activity in rat; format: functional
Vasopressin V1a receptor = Vasopressin V1a receptor (Rattus norvegicus, UniProt P30560); assay: Displacement of [3H]AVP from vasopressin V1a receptor in rat liver membrane; format: cell membranes
Sequence of Vasopressin V1a receptor (P30560 whole entry): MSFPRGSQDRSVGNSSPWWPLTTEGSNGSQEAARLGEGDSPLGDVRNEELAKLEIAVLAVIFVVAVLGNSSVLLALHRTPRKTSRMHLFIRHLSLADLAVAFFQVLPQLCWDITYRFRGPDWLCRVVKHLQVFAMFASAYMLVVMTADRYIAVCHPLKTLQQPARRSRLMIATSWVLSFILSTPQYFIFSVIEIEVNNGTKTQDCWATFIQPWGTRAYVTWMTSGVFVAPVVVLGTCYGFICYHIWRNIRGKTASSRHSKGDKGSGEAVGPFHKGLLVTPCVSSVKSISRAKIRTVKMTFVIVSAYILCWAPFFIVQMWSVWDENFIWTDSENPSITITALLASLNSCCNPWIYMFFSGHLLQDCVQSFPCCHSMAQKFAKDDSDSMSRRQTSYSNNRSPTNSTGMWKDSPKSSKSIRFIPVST

Vasopressin V2 receptor = Vasopressin V2 receptor (Rattus norvegicus, UniProt Q00788); assay: Displacement of [3H]AVP from vasopressin V2 receptor in rat kidney membranes; format: cell membranes, Membrane
Sequence of Vasopressin V2 receptor (Q00788 whole entry): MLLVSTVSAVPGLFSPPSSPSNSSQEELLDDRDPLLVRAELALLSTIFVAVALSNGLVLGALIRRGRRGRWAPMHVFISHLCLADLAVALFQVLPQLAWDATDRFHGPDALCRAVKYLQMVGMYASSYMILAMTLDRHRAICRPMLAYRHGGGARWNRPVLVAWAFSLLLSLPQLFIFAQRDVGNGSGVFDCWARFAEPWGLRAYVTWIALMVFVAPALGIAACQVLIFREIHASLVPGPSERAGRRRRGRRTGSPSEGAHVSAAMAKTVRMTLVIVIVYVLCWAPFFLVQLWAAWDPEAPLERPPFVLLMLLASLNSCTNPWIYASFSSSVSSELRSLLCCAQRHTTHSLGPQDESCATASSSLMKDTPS

[4] = target: Vasopressin V2 receptor (Rattus norvegicus) (UniProt Q00788); assay: Activity at vasopressin V2 receptor in rat kidney membranes assessed as adenylate cyclase activity; format: functional, cell membranes; conditions: Membrane, filed as agonist
Sequence of Vasopressin V2 receptor (Rattus norvegicus) (Q00788 whole entry): as above

Oxytocin receptor [5] = target: T2, Oxytocin receptor (Rattus norvegicus, UniProt P70536); assay: Displacement of [3H]AVP from rat OT receptor expressed in CHO cells; format: cell-based
T2 sequence (P70536 whole entry): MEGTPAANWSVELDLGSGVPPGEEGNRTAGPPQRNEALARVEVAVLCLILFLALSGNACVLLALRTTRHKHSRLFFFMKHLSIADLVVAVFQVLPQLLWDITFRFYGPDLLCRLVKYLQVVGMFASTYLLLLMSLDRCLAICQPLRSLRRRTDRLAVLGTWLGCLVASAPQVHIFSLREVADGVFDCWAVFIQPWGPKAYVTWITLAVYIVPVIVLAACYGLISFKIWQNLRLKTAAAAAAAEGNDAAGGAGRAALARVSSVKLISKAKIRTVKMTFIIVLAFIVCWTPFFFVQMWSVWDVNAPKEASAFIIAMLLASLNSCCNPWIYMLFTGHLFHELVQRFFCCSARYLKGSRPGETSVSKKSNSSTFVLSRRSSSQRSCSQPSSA

[6] = target: Vasopressin V2 receptor (Rattus norvegicus) (UniProt Q00788); assay: Activity at vasopressin V2 receptor in rat kidney membranes assessed as maximal adenylate cyclase activity relative to AVP; format: functional, cell membranes; conditions: Membrane, filed as agonist
Oxytocin receptor [7] = target: T3, Oxytocin receptor (Homo sapiens, UniProt P30559); assay: as §1; format: functional; conditions: read-out: pA2 (converted)
T3 sequence (P30559 whole entry): T1 sequence (whole entry)

[8] = target: T4, Vasopressin V1b receptor (Rattus norvegicus) (UniProt P48974); conditions: AtT20, filed as agonist
T4 sequence (whole entry): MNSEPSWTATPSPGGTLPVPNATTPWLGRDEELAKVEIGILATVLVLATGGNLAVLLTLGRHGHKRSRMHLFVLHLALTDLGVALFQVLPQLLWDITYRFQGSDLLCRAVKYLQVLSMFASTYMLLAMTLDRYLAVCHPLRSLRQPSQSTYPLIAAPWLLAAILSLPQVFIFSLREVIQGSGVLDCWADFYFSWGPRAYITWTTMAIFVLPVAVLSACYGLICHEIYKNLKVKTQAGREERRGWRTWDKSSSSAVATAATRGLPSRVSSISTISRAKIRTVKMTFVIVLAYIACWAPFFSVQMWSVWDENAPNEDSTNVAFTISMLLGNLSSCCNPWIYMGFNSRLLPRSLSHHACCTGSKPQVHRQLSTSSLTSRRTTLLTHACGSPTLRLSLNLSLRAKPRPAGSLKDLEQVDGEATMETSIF

Activity [1] [U/mg]	Ki (Vasopressin V1a receptor)	Ki (Vasopressin V2 receptor)	Kact [4] [nM]	Ki (Oxytocin receptor [5])	Activity [6] [%]	Kb (Oxytocin receptor [7])	Compound	Activity (Rattus norvegicus [2]) [U/mg]	Activity (Rattus norvegicus [3]) [U/mg]	Kact [8] [nM]
0.054	3.8 µM (antagonist)	100 nM (antagonist)	196	64 nM (antagonist)	76	–	CC(C)C[C@@H]1NC(=O)[C@H](Cc2ccccc2)NC(=O)[C@H](Cc2ccc(O)cc2)NC(=O)CCSSC[C@@H](C(=O)N2CCC[C@H]2C(=O)N[C@@H](CCCCN)C(=O)NCC(N)=O)NC(=O)[C@H](CC(N)=O)NC1=O ([Mpa]YFLNCPKG-NH2; disulfide 1-6)	10.5	0.9	–
0.046	3.3 µM (antagonist)	240 nM (antagonist)	300	134 nM (antagonist)	97	–	CC(C)C[C@@H]1NC(=O)[C@H](Cc2ccccc2)NC(=O)[C@H](Cc2ccc(O)cc2)NC(=O)CCSSC[C@@H](C(=O)N2CCC[C@H]2C(=O)N[C@@H](CN)C(=O)NCC(N)=O)NC(=O)[C@H](CC(N)=O)NC1=O ([Mpa]YFLNCP[Dap]G-NH2; disulfide 1-6)	0.7	0.05	–
0.15	0.13 µM (antagonist)	3.8 nM (antagonist)	–	125 nM (antagonist)	–	–	N=C(N)NCCC[C@@H]1NC(=O)[C@H](Cc2ccccc2)NC(=O)[C@H](Cc2ccc(O)cc2)NC(=O)CCSSC[C@@H](C(=O)N2CCC[C@H]2C(=O)N[C@@H](CCCCN)C(=O)NCC(N)=O)NC(=O)[C@H](CC(N)=O)NC1=O ([Mpa]YFRNCPKG-NH2; disulfide 1-6)	784	83	–
0.14	0.025 µM (antagonist)	1.8 nM (antagonist)	–	195 nM (antagonist)	–	–	N=C(N)NCCC[C@@H]1NC(=O)[C@H](Cc2ccccc2)NC(=O)[C@H](Cc2ccc(O)cc2)NC(=O)CCSSC[C@@H](C(=O)N2CCC[C@H]2C(=O)N[C@@H](CCN)C(=O)NCC(N)=O)NC(=O)[C@H](CC(N)=O)NC1=O ([Mpa]YFRNCP[Dab]G-NH2; disulfide 1-6)	431	190	–
0.06	0.067 µM (antagonist)	3.1 nM (antagonist)	–	130 nM (antagonist)	–	–	N=C(N)NCCC[C@@H]1NC(=O)[C@H](Cc2ccccc2)NC(=O)[C@H](Cc2ccc(O)cc2)NC(=O)CCSSC[C@@H](C(=O)N2CCC[C@H]2C(=O)N[C@@H](CCCN)C(=O)NCC(N)=O)NC(=O)[C@H](CC(N)=O)NC1=O ([Mpa]YFRNCP[Orn]G-NH2; disulfide 1-6)	823	173	–
–	9.1 µM (antagonist)	600 nM (antagonist)	–	590 nM (antagonist)	–	331 nM (agonist)	NCCCC[C@H](NC(=O)[C@@H]1CCCN1C(=O)[C@@H]1CSSCCC(=O)N[C@@H](Cc2ccc(O)cc2)C(=O)N[C@@H](Cc2ccccc2)C(=O)N[C@@H](CC2CCCCC2)C(=O)N[C@@H](CC(N)=O)C(=O)N1)C(=O)NCC(N)=O ([Mpa]YF[Cha]NCPKG-NH2; disulfide 1-6)	0.82	0.043	–
–	2.3 µM (antagonist)	12.7 nM (antagonist)	–	–	86	–	NC(=O)CNC(=O)[C@H](CCCN=C(N)N)NC(=O)[C@@H]1CCCN1C(=O)[C@@H]1CSSCCC(=O)N[C@@H](Cc2ccc(O)cc2)C(=O)N[C@@H](Cc2ccccc2)C(=O)N[C@@H](CC2CCCCC2)C(=O)N[C@@H](CC(N)=O)C(=O)N1 ([Mpa]YF[Cha]NCPRG-NH2; disulfide 1-6)	133.6	0.067	–
–	4.4 µM (antagonist)	450 nM (antagonist)	174	430 nM (antagonist)	75	447 nM (agonist)	NCC[C@H](NC(=O)[C@@H]1CCCN1C(=O)[C@@H]1CSSCCC(=O)N[C@@H](Cc2ccc(O)cc2)C(=O)N[C@@H](Cc2ccccc2)C(=O)N[C@@H](CC2CCCCC2)C(=O)N[C@@H](CC(N)=O)C(=O)N1)C(=O)NCC(N)=O ([Mpa]YF[Cha]NCP[Dab]G-NH2; disulfide 1-6)	1	0.18	–
–	1.8 µM (antagonist)	1050 nM (antagonist)	–	1200 nM (antagonist)	–	479 nM (agonist)	NC[C@H](NC(=O)[C@@H]1CCCN1C(=O)[C@@H]1CSSCCC(=O)N[C@@H](Cc2ccc(O)cc2)C(=O)N[C@@H](Cc2ccccc2)C(=O)N[C@@H](CC2CCCCC2)C(=O)N[C@@H](CC(N)=O)C(=O)N1)C(=O)NCC(N)=O ([Mpa]YF[Cha]NCP[Dap]G-NH2; disulfide 1-6)	0.3	0.002	–
–	2.9 µM (antagonist)	450 nM (antagonist)	–	550 nM (antagonist)	–	282 nM (agonist)	NCCC[C@H](NC(=O)[C@@H]1CCCN1C(=O)[C@@H]1CSSCCC(=O)N[C@@H](Cc2ccc(O)cc2)C(=O)N[C@@H](Cc2ccccc2)C(=O)N[C@@H](CC2CCCCC2)C(=O)N[C@@H](CC(N)=O)C(=O)N1)C(=O)NCC(N)=O ([Mpa]YF[Cha]NCP[Orn]G-NH2; disulfide 1-6)	1	0.22	–
3.1	2.8 µM (antagonist)	51 nM (antagonist)	–	22 nM (antagonist)	–	–	NCCCC[C@H](NC(=O)[C@@H]1CCCN1C(=O)[C@@H]1CSSCCC(=O)N[C@@H](Cc2ccc(O)cc2)C(=O)N[C@@H](Cc2ccccc2)C(=O)N[C@@H](CCCN)C(=O)N[C@@H](CC(N)=O)C(=O)N1)C(=O)NCC(N)=O ([Mpa]YF[Orn]NCPKG-NH2; disulfide 1-6)	7.8	0.23	–
2.8	1.3 µM (antagonist)	76 nM (antagonist)	–	37 nM (antagonist)	–	–	NCCC[C@@H]1NC(=O)[C@H](Cc2ccccc2)NC(=O)[C@H](Cc2ccc(O)cc2)NC(=O)CCSSC[C@@H](C(=O)N2CCC[C@H]2C(=O)N[C@@H](CCCN)C(=O)NCC(N)=O)NC(=O)[C@H](CC(N)=O)NC1=O ([Mpa]YF[Orn]NCP[Orn]G-NH2; disulfide 1-6)	7.9	1.9	–

Compound	Activity [1] [U/mg]	Ki (Vasopressin V1a receptor)	Ki (Vasopressin V2 receptor)	Kact [4] [nM]	Ki (Oxytocin receptor [5])	Activity [6] [%]	Kb (Oxytocin receptor [7])	Activity (Rattus norvegicus [2]) [U/mg]	Activity (Rattus norvegicus [3]) [U/mg]	Kact [8] [nM]
N=C(N)NCCC[C@H](NC(=O)[C@@H]1CCCN1C(=O)[C@@H]1CSSC[C@H](N)C(=O)N[C@@H](Cc2ccc(O)cc2)C(=O)N[C@@H](Cc2ccccc2)C(=O)N[C@@H](CCC(N)=O)C(=O)N[C@@H](CC(N)=O)C(=O)N1)C(=O)NCC(N)=O [VASOPRESSIN]	–	–	–	0.32	–	–	–	323	–	2.3
